In article PMC12648656, “Palladium(II) Complexes with Noncovalent Interactions with DNA: Solution Speciation Controlled by Solvent Identity, pH, and Concentration” (Inorganic Chemistry, 2025):
Values after ≈ are worked out from the molar mass of the structure shown. Like-named read-outs stand apart in the source and are kept apart here.

What was measured:
[1] = system: calf thymus-DNA (CT-DNA); assay: Viscometry with CT-DNA; assay type: binding; conditions: compound/DNA ratios 0.0 to 1.0; 5 mM Tris, 100 mM NaCl, pH 7.40, 25.0 °C
Procedure: […] Then, the samples were incubated at 37 °C and with constant shaking at 300 rpm for 10 min and 1 h. After each incubation, the viscosity was measured at a constant temperature of 25.0 ± 0.2 °C in a vibrational viscometer. The relative viscosity was calculated by taking the mean values of three replicate measurements, and the values were represented by plotting the values of relative viscosity of CT-DNA (η/η0)^1/3 against 1/R.

[2] = system: pBR322 plasmid DNA; assay: Agarose gel electrophoresis mobility shift; assay type: binding; conditions: r i 0.01 to 0.20, 24 h, 37 °C
Procedure: Complexes (2) and (3) were incubated at 37 °C with a concentration of 0.0625 μg/μL pBR322 plasmid DNA at different concentrations expressed as r i = complex:DNA (base pair) ratio. The r i used was from 0.01 to 0.20, in a total volume of 20 μL. After an incubation period of 24 h, the mobility of the complex-treated pBR322 samples was analyzed by gel electrophoresis at 70 V in Tris/acetate/EDTA buffer. A control of pBR322 was also incubated, and a 1 kb ladder aliquot was loaded into lane 1 of the gel. The gel was stained with an ethidium bromide aqueous solution, and DNA bands were visualized with a UV-transilluminator UVITEC Cambridge UVIDOC HD2 instrument. The studies were performed with 3% (v/v) DMSO as the final solution.

[3] = system: MCF7 human breast cancer cell line; set-up: method as in marks after cisplatin lost in b83 (probably 43, 44); conditions: MCF7, 72 h exposure; ref marks after cisplatin lost in b83 (probably 43, 44); cited from earlier work
[4] = target: T1, hen egg white lysozyme (HEWL) (Gallus gallus, UniProt P00698); set-up: method as in not given; conditions: reported under the same conditions; ref not given; cited from earlier work
T1 construct: a model protein, namely HEWL (hen egg white lysozyme), was also studied; from tissue; host or cells: hen egg white (from the protein's name)
T1 sequence (P00698 19-147): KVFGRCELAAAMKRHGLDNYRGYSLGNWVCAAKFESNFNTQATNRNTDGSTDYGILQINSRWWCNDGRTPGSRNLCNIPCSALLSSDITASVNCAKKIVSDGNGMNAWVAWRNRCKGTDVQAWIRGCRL

[5] = system: Colo 205 human colon cancer cell line; set-up: method as in marks after cisplatin lost in b83 (probably 43, 44); conditions: Colo 205, 72 h exposure; ref marks after cisplatin lost in b83 (probably 43, 44); cited from earlier work
[6] = system: Enterococcus faecalis (ATCC 29212); assay: Antibacterial MIC, broth dilution; assay type: cell-based
Procedure: (§1) Antibacterial activity was determined for the title compounds in various Gram-negative and Gram-positive bacterial strains, namely Klebsiella pneumoniae, Escherichia coli (ATCC 25922), Staphylococcus aureus (272123), methicillin-resistant Staphylococcus aureus (ATCC 43300), and Enterococcus faecalis (ATCC 29212). The stock solutions of the tested compounds were prepared in DMSO at a 5 mM concentration. […] All stock solutions were diluted in 100 μL of Mueller Hinton Broth, and then two-fold serial dilutions were performed. Then, a 10^–4 dilution of an overnight bacterial culture in 100 μL of medium was added to each well, except for the medium control wells. The highest concentration of the compounds in the tested samples was 100 μM. The plates were incubated at 37 °C for 18 h. After that, the MIC values were determined by visual inspection.

[7] = system: Staphylococcus aureus (272123); assay: Antibacterial MIC, broth dilution; assay type: cell-based; conditions: 18 h
Procedure: as §1

[8] = system: Klebsiella pneumoniae; assay: Antibacterial MIC, broth dilution; assay type: cell-based; conditions: 18 h
Procedure: as §1

[9] = system: Escherichia coli (ATCC 25922); assay: Antibacterial MIC, broth dilution; assay type: cell-based
Procedure: as §1

[10] = n-Octanol/water and n-octanol/Tris buffer shake-flask partitioning; assay type: physicochemical
Procedure: The distribution coefficient values (D 7.4) of the compounds were determined by the traditional shake-flask method in n-octanol/buffered aqueous solution at pH 7.40 for 5 mM Tris HCl with 0.1 M KCl and at pH 7.4 at 25.0 ± 0.2 °C. The ligand and complexes were dissolved in n-octanol (presaturated by the aqueous buffer) because of the very low aqueous solubility. The aqueous buffer solution and n-octanol ratio was 1:1 due to the expected high lipophilicity of the compounds. First, samples were mixed with vertical rotation (∼20 rpm) for 3 h, and then the two phases were separated by centrifugation at 3000 rpm (∼1000g) for 3 min. After separation, UV–vis spectra of the compounds were recorded in both phases. Spectra of the n-octanol phases were compared to those of the original n-octanol stock solutions.
The distribution coefficient values were also determined using unbuffered water and octanol (also presaturated) with a ratio of 1:1.

[11] = Solubility observations; assay type: physicochemical; conditions: as observed; aqueous solution for HL
[12] = system: methicillin-resistant Staphylococcus aureus (ATCC 43300); assay: microbe, parasite or virus in culture; assay type: cell-based; conditions: 18 h
Procedure: as §1

[13] = Spectrophotometric (UV-vis) pH titrations for proton dissociation constants; assay type: physicochemical; conditions: I = 0.10 M (KCl), 25.0 °C
Procedure: Spectrophotometric titrations were applied to study the equilibrium processes (proton dissociation and complex dissociation/formation) in DMSO/H2O mixtures due to the limited aqueous solubility of the compounds. The calibration of the electrode system was performed by strong acid–strong base pH-potentiometric titrations in 30% (v/v) and 60% (v/v) DMSO/H2O solvent mixtures at 25.0 ± 0.1 °C as described in our previous works. , KCl (0.1 M) was the supporting electrolyte to maintain constant ionic strength, which refers to the chloride ion concentration in blood plasma. […] The initial sample volume was 5 mL. Spectrophotometric titrations were performed in the pH range 1.8–12.5 for 30% (v/v) DMSO/H2O medium and 1.8–14.0 for 60% (v/v) DMSO/H2O medium. Prior to the titrations, purified argon was passed through the samples for approximately 10 min to remove CO2 traces, and argon was also passed over the samples during these measurements. The proton dissociation constants were calculated by using the computer program PSEQUAD.

[14] = system: MCF7 human breast cancer cell line; assay: In vitro cytotoxicity, MTT; assay type: cell-based; conditions: Homo sapiens; MCF7, 72 h exposure
Procedure: (§2) Cell culture reagents were obtained from Merck, and plasticware was obtained from Sarstedt. Human colon adenocarcinoma cell line Colo 205 (ATCC CCL-222) and MCF7 (ATCC HTB-22) breast cancer cells were purchased from LGC Promochem. Cancer cells were cultured in RPMI 1640 medium supplemented with 10% heat-inactivated fetal bovine serum, 2 mM L-glutamine, and 1 mM sodium pyruvate and buffered with 100 mM HEPES. The cells were incubated at 37 °C in a 5% CO2, 95% air atmosphere and were detached with Trypsin-Versene (EDTA) solution for 5 min at 37 °C.
(§3) The tested ligands were dissolved in DMSO, and the stock solutions (5 mM) were diluted in complete culture medium. Two-fold serial dilutions of compounds were made in 100 μL of the medium, horizontally. The semiadherent colon adenocarcinoma cells were treated with Trypsin-Versene (EDTA) solution. They were adjusted to a density of 1 × 10^4 cells in 100 μL of RPMI 1640 medium and were added to each well, with the exception of the medium control wells. The final volume of the wells containing compounds and cells was 200 μL. The plates containing the cells were incubated at 37 °C for 72 h; at the end of the incubation period, 20 μL of MTT solution (5 mg/mL) was added to each well. After incubation at 37 °C for 4 h, 100 μL of sodium dodecyl sulfate solution (10% in 0.01 M HCl) was added to each well, and the plates were further incubated at 37 °C overnight. Cell growth was determined by measuring the optical density (OD) at 540 and 630 nm with a Multiskan EX plate reader (Thermo Labsystems).
(§4) Curves for the data obtained on cancer cells were fitted by GraphPad Prism software using the sigmoidal dose–response model (comparing variable and fixed slopes). The IC50 values were always obtained from at least three independent experiments.

[15] = system: Colo 205 human colon cancer cell line; assay: In vitro cytotoxicity, MTT; assay type: cell-based; conditions: Colo 205, 72 h exposure
Procedure: as §2, §3, §4

[16] = system: calf thymus-DNA (CT-DNA); assay: UV-vis titration with CT-DNA; assay type: binding; conditions: complex/DNA ratio 0 to 0.79; 5 mM Tris, 50 mM NaCl, pH 7.40, 25 °C
Procedure: To investigate the potential binding ability of the palladium complexes (2) and (3) with DNA, UV–vis titrations (240 to 700 nm) were performed at room temperature. During the titrations, the CT-DNA concentration (5.08 × 10^–5 M) was kept constant, while the concentration of each complex (0 to 2.00 × 10^–5 M) was varied. The changes in the typical absorbance of CT-DNA at 260 nm were monitored after equilibration (10 min) and after 1 h of incubation at 37 °C. […] Control experiments with DMSO were performed, and no changes in the CT-DNA spectrum were observed.

[17] = target: T1, hen egg white lysozyme (HEWL); assay: Reaction with lysozyme followed by UV-vis at 280 nm, pseudo-first-order kinetics; assay type: binding; conditions: metal:protein 3:1, 5 mM Tris/3% DMSO, 37 °C, absorbance at 280 nm
Procedure: The interaction of complexes (2) and (3) with hen egg white lysozyme (HEWL) was investigated using a 10^–5 M solution of the protein. Lysozyme is a widely used model protein for studying the binding of potential metallodrugs. The sample preparation for this assay was carried out using the same protocol of the samples for the DNA interactions studies by UV–vis spectrophotometry. The integrity of the enzyme was checked in each experiment, with a comparison of fresh and incubated samples. UV–vis spectra were recorded before and after incubation with the complex (dissolved in 97% 5 mM Tris/3% DMSO) for 24 h at 37 °C. A metal to protein ratio of 3:1 was used for these studies, a ratio that affords similar results to 10:1 and eases the sample preparation. The experimental time-dependent profiles of the spectra were analyzed as pseudo-first-order reactions by plotting the variation of the absorbance as a function of time.

[18] = system: glutathione (GSH); assay: Reaction with glutathione followed by UV-vis; conditions: 30-fold GSH, ~20 μM complex, 60% (v/v) DMSO/phosphate buffer pH 7.4, 25.0 °C
Procedure: Reactions between the title compounds and GSH were also followed by UV–vis spectrophotometry under an inert atmosphere to overcome oxidation of GSH by air oxygen. Samples contained the metal complexes at low concentrations (∼20 μM) and were prepared using 60% (v/v) DMSO/phosphate buffer solution (pH 7.4) to avoid precipitation. The reactants were separated in the pockets of a tandem cuvette, followed by deoxygenation by argon bubbling. The separate solutions were mixed at 1:30 metal complex:GSH molar ratios, and UV–vis spectra were recorded. Argon was continuously passed over the sample during the whole measurement.

For N.N.[Cl][Pt][Cl] [Cisplatin], the “effect on relative viscosity of CT-DNA” value [1] is listed as “relative viscosity of the solution decreases”, the “effect on electrophoretic mobility of pBR322 (two forms, SC and OC)” value [2] is listed as “changes in the mobility of the pBR322 isoforms” and the IC50 [3] is listed as 15 ± 0.01 µM. For the same molecule, the “observed rate constant k obs” value [4] was 1.98 × 10^–4 s^–1 and the IC50 [5] was 23 ± 1 µM.

In the case of S=C(N/N=C/c1c[nH]cn1)Nc1ccc(Cl)cc1 [HL, 1H-Imidazole-4-carboxaldehyde(4N-p-chlorophenyl)thiosemicarbazone], the MIC ([6]; Enterococcus faecalis, ATCC29212, 18 h) is reported as 100 µM (≈ 28 µg/mL), the MIC ([7]; Staphylococcus aureus) is reported as 100 µM (≈ 28 µg/mL) and the MIC ([8]; Klebsiella pneumoniae) is reported as > 100 µM. For the same molecule, the MIC ([9]; Escherichia coli, ATCC25922, 18 h) was 25 µM (≈ 6.99 µg/mL), the logD ([10]; n-octanol/Tris HCl buffer, pH 7.4, n-octanol/5 mM Tris HCl with 0.1 M KCl, pH 7.40, 25.0 °C, read-out: log D o/t) was 1.58 and the logD ([10]; n-octanol/pure (unbuffered) water, 1:1, read-out: log D o/w) was 0.9. For the same molecule, the solubility [11] was “poor solubility”, the MIC ([12]; Staphylococcus aureus, ATCC 43300 / MRSA) was 50 µM (≈ 14 µg/mL) and the pKa ([13]; 30% (v/v) DMSO/H2O solvent mixture, 30% (v/v) DMSO/H2O, read-out: pKa1) was 4.38 ± 0.03. The pKa ([13]; 30% (v/v) DMSO/H2O solvent mixture, 30% (v/v) DMSO/H2O, read-out: pKa2) was 10.96 ± 0.04, the pKa ([13]; 60% (v/v) DMSO/H2O solvent mixture, 60% (v/v) DMSO/H2O, read-out: pKa1) was 3.81 ± 0.02 and the pKa ([13]; 60% (v/v) DMSO/H2O solvent mixture, 60% (v/v) DMSO/H2O, read-out: pKa2) was 11.12 ± 0.01. The pKa ([13]; pure water (0% DMSO), predicted value, 0% DMSO (pure water), predicted value, read-out: pKa1) was 4.58, the pKa ([13]; pure water (0% DMSO), predicted value, 0% DMSO (pure water), predicted value, read-out: pKa2) was 10.9 and the IC50 [14] was 2.97 ± 0.32 µM. For the same molecule, the IC50 ([15]; Homo sapiens) was 19.1 ± 0.6 µM.

For “Chlorido(dimethyl sulfoxide)(1H-imidazole-4-carboxaldehyde-4N-p-chlorophenylthiosemicarbazonato)palladium(II) [(3)]”, the “change of CT-DNA absorption at 260 nm” value [16] was “absorption values of DNA–complex samples increase”, the MIC ([6]; E. faecalis, 18 h, 37 °C) was > 100 µM and the MIC ([7]; S. aureus, 37 °C) was > 100 µM. For the same molecule, the MIC ([8]; K. pneumoniae, 37 °C) was > 100 µM, the MIC ([9]; E. coli, 18 h, 37 °C) was > 100 µM and the “effect on electrophoretic mobility of supercoiled pBR322 (pure form)” value [2] was “small unwinding”. For the same molecule, the “observed rate constant k obs” value [17] was “(8.75 ± 0.09) × 10^–5 s^–1”, the MIC ([12]; S. aureus (MRSA), 37 °C) was > 100 µM and the “time to equilibrium of the reaction with GSH” value [18] was ≤ 30 min. It also gave an IC50 [15] of 16.2 ± 1.18 µM.
